Values quoted from earlier work in patent publication US3972859A, “Novel decapeptide amide analogs of leuteinizing hormone-releasing hormone” (Takeda Chemical Industries, Ltd., priority 1974, dated 1976).

Tested on: LH-RH activity
Settings: relative to parent LH-RH; literature (Monahan et al 1973)

**Q.** With [D-Ala^6 ]LH-RH as the substance, how does the “potency, % of the potency of the parent LH-RH” value read?
**A.** Its value is 350-450%.
